Experimental data published in US20190390169A1, “PANCREATIC PROGENITOR CELL PRODUCTION METHOD” (Kyoto University, priority 2017, published 2019).
Structures can show the parent of a compound that is named as a salt.

Key:
[1] = test system: Ff-WJ-18 cells (human iPS cells); assay: Induction of differentiation of iPS cells into pancreatic progenitor cells at stage 4, flow cytometry; type: cell-based; conditions: stage 4, 4 days, 0.00001 μM to 1 μM, medium with or without ROCK inhibitor Y-27632, vs negative control (FIG. 2, FIG. 3)
Procedure: The human iPS cells used were Ff-WJ-18 cells (Kyoto University). The Ff-WJ-18 cells maintenance-cultured according to Reference Example 1 were induced to differentiate into pancreatic progenitor cells by the following procedures. Culture was performed at 37° C. under 5% CO2 in all cases, and the culture container used was coated with iMatrix-511(TM) (Nippi).
Ff-WJ-18 cells (70,000 cells/9.6 cm^2) were seeded to RPMI1640 medium containing 1% penicillin/streptomycin, 1% B27, activin A (100 ng/mL), CHIR99021 (3 μM), and Y-27632 (10 μM), and cultured for 1 day. The cells were further cultured for 2 days in RPMI1640 medium containing 1% penicillin/streptomycin, 1% B27, and activin A (100 ng/mL) with the medium replaced with a fresh one every day.
The resulting cells were cultured for 4 days using instead iMEM medium containing 1% penicillin/streptomycin, 1% B27, and KGF (50 ng/mL). […]
The cells after the culture at stage 4 were collected, and the proportion of NKX6.1-positive/PDX-1-positive cells was determined by flow cytometry. Likewise, the proportion of the cells was determined as to iPS cells and cells before the culture at stage 4 (s3d2: stage 3, day 2). […]
Also, an effect was compared between a factor having CDK1/2-inhibiting activity and a factor having CDK8/19-inhibiting activity by a similar method. […] The proportion of NKX6.1-positive/PDX-1-positive cells was determined.

[2] = biological target: T1, CDK8/CycC (Homo sapiens, UniProt P49336); assay: CDK8-inhibiting activity (Kinase Tracer-236 / Eu-anti-GST fluorescence assay); type: binding; conditions: read-out: rate of inhibition of CDK8; for inhibition at 1 µM: 1 μM test compound; for inhibition at 10 µM: 10 μM test compound
T1 construct: purchased Carna Biosciences
Procedure: (§1) Test compounds were evaluated for their CDK8-inhibiting activity and CDK19-inhibiting activity by the following method.
(§2) Each test compound dissolved in dimethyl sulfoxide was diluted with an assay buffer (25 mM HEPES, 10 mM MgCl2, 2 mM DL-dithiothreitol, 0.01% Tween-20) to obtain a primary dilution having a DMSO concentration of 3%. The primary dilution was dispensed at 2 μL/well to a 384-well plate. Then, a mixed solution of Eu^3+ Cryptate conjugated mouse monoclonal antibody anti-glutathione S-transferase (CisBio) diluted 267-fold with an assay buffer and 60 nM Kinase Tracer-236 (Life Technologies) was added at 2 μL/well. After the addition, a kinase solution (84 ng/mL CDK8/CycC (Carna Biosciences) diluted with an assay buffer was used for CDK8-inhibiting activity measurement, and 87 ng/mL CDC2L6/CycC (Carna Biosciences) diluted with an assay buffer was used for CDK19-inhibiting activity measurement) was further added at 2 μL/well. After the addition, the plate was left standing at room temperature for 1 hour, followed by the measurement of fluorescence intensity (excitation wavelength: 320 nm, fluorescence wavelength: 615 nm, 665 nm, delay time: 50 μsec) using a plate reader EnVision (Perkin Elmer).
(§3) When the fluorescence intensity of a reaction solution under compound non-addition conditions was used as a control and the fluorescence intensity of a reaction solution under 10 μM control compound addition conditions was used as a blank, the rate of inhibition of CDK8 or CDK19 by the test compound can be calculated according to the following expression:
(§4) Rate of inhibition (%)=(1−(Fluorescence intensity of the test compound−Blank)/(Control−Blank))×100
(§5) The control compound used was commercially available 4-(4-(2,3-dihydro-1,4-benzodioxin-6-yl)-1H-pyrazol-3-yl)benzene-1,3-diol.

[3] = biological target: T2, CDC2L6/CycC (CDK19) (Homo sapiens, UniProt Q9BWU1); assay: CDK19-inhibiting activity (Kinase Tracer-236 / Eu-anti-GST fluorescence assay); type: binding; conditions: read-out: rate of inhibition of CDK19; for inhibition at 1 µM: 1 μM test compound; for inhibition at 10 µM: 10 μM test compound
T2 construct: purchased Carna Biosciences
Procedure: as §1, §2, §3, §4, §5

T1 sequence (P49336 whole entry): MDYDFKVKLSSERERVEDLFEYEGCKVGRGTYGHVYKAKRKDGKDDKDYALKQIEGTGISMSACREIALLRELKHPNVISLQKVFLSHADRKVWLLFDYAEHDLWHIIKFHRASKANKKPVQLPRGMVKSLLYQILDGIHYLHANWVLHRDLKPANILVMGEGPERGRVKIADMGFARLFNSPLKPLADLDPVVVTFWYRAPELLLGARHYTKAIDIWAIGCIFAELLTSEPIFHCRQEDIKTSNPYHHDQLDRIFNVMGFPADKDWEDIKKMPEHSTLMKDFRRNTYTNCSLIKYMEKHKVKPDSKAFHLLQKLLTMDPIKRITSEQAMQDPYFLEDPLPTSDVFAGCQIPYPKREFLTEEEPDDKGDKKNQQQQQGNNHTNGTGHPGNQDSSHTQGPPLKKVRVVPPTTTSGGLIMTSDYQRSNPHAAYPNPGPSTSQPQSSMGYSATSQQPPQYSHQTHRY
T1 sequence (P24863 whole entry partner): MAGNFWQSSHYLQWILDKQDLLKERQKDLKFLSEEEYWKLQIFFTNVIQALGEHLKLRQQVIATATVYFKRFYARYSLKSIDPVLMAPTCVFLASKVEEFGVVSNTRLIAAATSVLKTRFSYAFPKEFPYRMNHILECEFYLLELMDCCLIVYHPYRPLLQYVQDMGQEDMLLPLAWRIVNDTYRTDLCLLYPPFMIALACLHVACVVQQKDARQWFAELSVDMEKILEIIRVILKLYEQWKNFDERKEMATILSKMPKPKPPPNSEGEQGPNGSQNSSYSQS
T2 sequence (Q9BWU1 whole entry): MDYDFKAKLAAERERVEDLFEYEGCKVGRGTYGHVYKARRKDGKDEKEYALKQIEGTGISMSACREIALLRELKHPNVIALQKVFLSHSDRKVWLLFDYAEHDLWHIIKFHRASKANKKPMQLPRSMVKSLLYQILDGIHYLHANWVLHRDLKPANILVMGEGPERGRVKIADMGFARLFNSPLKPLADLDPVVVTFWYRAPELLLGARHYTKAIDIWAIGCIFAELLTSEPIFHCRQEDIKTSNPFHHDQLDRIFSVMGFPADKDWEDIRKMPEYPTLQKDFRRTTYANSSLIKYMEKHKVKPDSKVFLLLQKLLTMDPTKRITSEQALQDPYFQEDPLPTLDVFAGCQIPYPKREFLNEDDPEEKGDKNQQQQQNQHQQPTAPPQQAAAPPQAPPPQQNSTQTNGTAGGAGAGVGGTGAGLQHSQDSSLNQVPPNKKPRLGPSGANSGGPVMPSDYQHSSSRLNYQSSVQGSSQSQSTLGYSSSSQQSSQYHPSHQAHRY
T2 sequence (P24863 whole entry partner): as the sequence (P24863 whole entry partner) above

inhibition at 1 µM [2] [%]	inhibition at 10 µM [2] [%]	inhibition at 1 µM [3] [%]	inhibition at 10 µM [3] [%]	SMILES	proportion of NKX6.1-positive/PDX-1-positive cells [1]
100	100	102	103	O=C1Nc2ccccc2N(S(=O)(=O)c2ccc(F)cc2)C1CCSc1ccc2nccn2n1 (centres unmarked) [Compound 2, 4-((4-Fluorophenyl)sulfonyl)-3-(2-(imidazo[1,2-b]pyridazin-6-ylsulfanyl)ethyl)-3,4-dihydroquinoxalin-2(1H)-one]	–
87	100	86	100	Oc1ccc(-c2n[nH]cc2-c2ccc3c(c2)OCCO3)c(O)c1 [Compound 5, 4-(4-(2,3-Dihydro-1,4-benzodioxin-6-yl)-1H-pyrazol-3-yl)benzene-1,3-diol, reference compound]	–

Continued, compound first:

SMILES	inhibition at 1 µM [2] [%]	inhibition at 10 µM [2] [%]	inhibition at 1 µM [3] [%]	inhibition at 10 µM [3] [%]	proportion of NKX6.1-positive/PDX-1-positive cells [1]
Nc1nc(Nc2ccc(S(N)(=O)=O)cc2)nn1C(=S)Nc1c(F)cccc1F [CAS443798-55-8]	–	–	–	–	efficient induction of differentiation into pancreatic progenitor cells was not observed
c1ccc(COc2cccc(-c3c[nH]c4ncccc34)c2)cc1 [Compound 4, 3-(3-(Benzyloxy)phenyl)-1H-pyrrolo[2,3-b]pyridine]	91	102	94	101	–
NC(=O)c1ccc(-c2c[nH]c3ncccc23)cc1NCc1ccccc1 [Compound 3, 2-(Benzylamino)-4-(1H-pyrrolo[2,3-b]pyridin-3-yl)benzamide]	101	105	101	104	–
CCCN(CCC)C(=O)c1ccc2cncc(-c3ccc(C)cc3)c2n1 [Compound 7, 8-(4-Methylphenyl)-N,N-dipropyl-1,6-naphthyridine-2-carboxamide trifluoroacetate]	92	104	83	100	–
Cn1ncc2c1-c1c(Oc3ccc(F)cc3F)sc(C(N)=O)c1CC2 [Compound 1, 8-(2,4-Difluorophenoxy)-1-methyl-4,5-dihydro-1H-thieno[3,4-g]indazole-6-carboxamide]	97	94	99	96	–
CCCCNC(=O)c1ccc2cncc(-c3ccc(OC)cc3)c2n1 [Compound 6, N-Butyl-8-(4-methoxyphenyl)-1,6-naphthyridine-2-carboxamide trifluoroacetate]	103	102	100	100	–
